In patent publication US10246444B2, “1,2-dithiolane and dithiol compounds useful in treating mutant EGFR-mediated diseases and conditions” (Sabila Biosciences LLC, priority 2017, dated 2019):

Tests used:
kinase [1] = molecular target: kinase (Homo sapiens, UniProt Q15303); experiment: Radioisotope filter binding assay (33P-ATP kinase activity, IC50); assay type: biochemical; settings: HER 4, read-out: IC50 Activity level HER 4
Description: (§1) Radioisotope Filter Binding Assay: In this assay format, it directly detects the true product without the use of modified substrates or coupling enzymes (Uitdehaag, J. C. et al. Br. J. Pharmacol. 2012, 166, 858-876; Hastie, C. J. et al. Nat. Protoc. 2006, 1, 968-971) according to equation 1.
(§2) The protocol calls for test compound of the invention to be incubated with kinase, substrate, cofactors, and radio-isotope-labeled ATP (^33P-gamma-ATP). The reaction mixtures are then spotted onto filter papers which bind the radioisotope labeled catalytic product. Unreacted phosphate is removed via washing. The reagents used include base reaction buffer; 20 mM Hepes (pH 7.5), 10 mM MgCl2, 1 mM EGTA, 0.02% Brij35, 0.02 mg/ml BSA, 0.1 mM Na3VO4, 2 mM DTT, 1% DMSO. The reaction procedure include the following steps: (1) prepare indicated substrate in freshly prepared base reaction buffer, (2) deliver any required cofactors to the substrate solution above, (3) deliver indicated kinase into the substrate solution and gently mix, (4) deliver compounds in DMSO into the kinase reaction mixture by Acoustic technology (Echo550; nanoliter range), incubate for 20 minutes at room temperature, (5) deliver ^33P-ATP (specific activity 10 μCi/μL) into the reaction mixture to initiate the reaction, (6) incubate kinase reaction for 2 hours at room temperature, (7) reactions are spotted onto P81 ion exchange paper, (8) detect kinase activity by filter-binding method.

EGFR WT = EGFR WT (Homo sapiens (Human), UniProt P00533); experiment: KinaseSeeker rabbit reticulocyte lysate competition binding assay (IC50)
Description: (§3) Luminescence readout translates into a highly sensitive and robust assay with low background and minimal interference from test compounds.
(§4) 10 mM stock solutions of test compounds were serially diluted in DMSO to make assay stocks. Prior to initiating IC50 determinations, the test compounds were evaluated for false positive against split-luciferase.
(§5) For kinase assays, Cfluc-kinase was translated along with Fos-Nfluc using a cell-free system (rabbit reticulocyte lysate) at 30° C. for 90 min. 24 uL aliquot of this lysate containing either 1 uL of DMSO (for no-inhibitor control) or compound solution in DMSO was incubated for 30 minutes at room temperature followed by 1 hour in presence of a kinase specific probe. 80 uL of luciferin assay reagent was added to each solution and luminescence was immediately measured on a luminometer.
(§6) The % Activity was plotted against compound concentration and the IC50 was determined for each compound using a 7-point curve (Jester, B. W.; et. al. J. Am. Chem. Soc. 2010, 132, 11727-11735. Jester, B. W.; et. al. J. Med. Chem. 2012, 55, 1526-1537).

EGFR (L858R) = EGFR (L858R) (Homo sapiens (Human), UniProt P00533, L858R); experiment: as above
Description: as §3, §4, §5, §6

[2] = molecular target: various mutant EGF receptors (Homo sapiens, UniProt P00533, A750P/DEL747-749); experiment: KINOMEscan competition binding assay (Kd), Example 40 in various mutant EGF receptors (Table 17)
Description: (§7) The assay is performed by combining three components: DNA-tagged kinase; immobilized ligand; and a test compound. The ability of the test compound to compete with the immobilized ligand is measured via quantitative PCR of the DNA tag.
(§8) For most assays, kinase-tagged T7 phage strains were prepared in an E. coli host derived from the BL21 strain. E. coli were grown to log-phase and infected with T7 phage and incubated with shaking at 32° C. until lysis. The lysates were centrifuged and filtered to remove cell debris. The remaining kinases were produced in HEK-293 cells and subsequently tagged with DNA for qPCR detection. Streptavidin-coated magnetic beads were treated with biotinylated small molecule ligands for 30 minutes at room temperature to generate affinity resins for kinase assays. The liganded beads were blocked with excess biotin and washed with blocking buffer (SeaBlock (Pierce), 1% BSA, 0.05% Tween 20, 1 mM DTT) to remove unbound ligand and to reduce nonspecific binding. […] All reactions were performed in polystyrene 96-well plates in a final volume of 0.135 ml. […] The kinase concentration in the eluates was measured by qPCR.

[3] = molecular target: various mutant EGF receptors (Homo sapiens, UniProt P00533, DEL747-752/P753S); experiment: as above
Description: as §7, §8

[4] = molecular target: various mutant EGF receptors (Homo sapiens, UniProt P00533, L861Q); experiment: as above
Description: as §7, §8

[5] = molecular target: various mutant EGF receptors (Homo sapiens, UniProt P00533, G719C); experiment: as above
Description: as §7, §8

[6] = molecular target: various mutant EGF receptors (Homo sapiens, UniProt P00533, DEL747-751/INS746S); experiment: as above
Description: as §7, §8

[7] = molecular target: various mutant EGF receptors (Homo sapiens, UniProt P00533, G719S); experiment: as above
Description: as §7, §8

EGFR E746-A750del = EGFR E746-A750del (Homo sapiens (Human), UniProt P00533, DEL746-750); experiment: KINOMEscan competition binding assay (Kd); settings: KINOMEscan binding constant; read-out: Kd Activity Level (EGFR E746-A750del)
Description: as §7, §8

EGFR S752-I759del = EGFR S752-I759del (Homo sapiens (Human), UniProt P00533, DEL752-759); experiment: KINOMEscan competition binding assay (Kd); settings: KINOMEscan binding constant; read-out: Kd Activity Level (EGFR S752-I759del)
Description: as §7, §8

HER2 = HER2 (Homo sapiens (Human), UniProt P04626); experiment: KinaseSeeker rabbit reticulocyte lysate competition binding assay (IC50)
Description: as §3, §4, §5, §6

kinase [8] = molecular target: kinase (Homo sapiens, UniProt P00533, L858R); experiment: Radioisotope filter binding assay (33P-ATP kinase activity, IC50); assay type: biochemical; settings: EGFR L858R, read-out: IC50 Activity level EGFR L858R
Description: as §1, §2

kinase [9] = experiment: as above; assay type: biochemical; settings: HER 2, read-out: IC50 Activity level HER 2
Description: as §1, §2

kinase [10] = molecular target: kinase (Homo sapiens, UniProt P00533); experiment: as above; assay type: biochemical; settings: EGFR WT, read-out: IC50 Activity level EGFR WT
Description: as §1, §2

kinase [11] = molecular target: kinase (Homo sapiens, UniProt P00533, DEL746-750); experiment: as above; assay type: biochemical; settings: EGFR E746-A750del, read-out: IC50 Activity level EGFR E746-A750del
Description: as §1, §2

EGFR WT, sequence (P00533 25-1210): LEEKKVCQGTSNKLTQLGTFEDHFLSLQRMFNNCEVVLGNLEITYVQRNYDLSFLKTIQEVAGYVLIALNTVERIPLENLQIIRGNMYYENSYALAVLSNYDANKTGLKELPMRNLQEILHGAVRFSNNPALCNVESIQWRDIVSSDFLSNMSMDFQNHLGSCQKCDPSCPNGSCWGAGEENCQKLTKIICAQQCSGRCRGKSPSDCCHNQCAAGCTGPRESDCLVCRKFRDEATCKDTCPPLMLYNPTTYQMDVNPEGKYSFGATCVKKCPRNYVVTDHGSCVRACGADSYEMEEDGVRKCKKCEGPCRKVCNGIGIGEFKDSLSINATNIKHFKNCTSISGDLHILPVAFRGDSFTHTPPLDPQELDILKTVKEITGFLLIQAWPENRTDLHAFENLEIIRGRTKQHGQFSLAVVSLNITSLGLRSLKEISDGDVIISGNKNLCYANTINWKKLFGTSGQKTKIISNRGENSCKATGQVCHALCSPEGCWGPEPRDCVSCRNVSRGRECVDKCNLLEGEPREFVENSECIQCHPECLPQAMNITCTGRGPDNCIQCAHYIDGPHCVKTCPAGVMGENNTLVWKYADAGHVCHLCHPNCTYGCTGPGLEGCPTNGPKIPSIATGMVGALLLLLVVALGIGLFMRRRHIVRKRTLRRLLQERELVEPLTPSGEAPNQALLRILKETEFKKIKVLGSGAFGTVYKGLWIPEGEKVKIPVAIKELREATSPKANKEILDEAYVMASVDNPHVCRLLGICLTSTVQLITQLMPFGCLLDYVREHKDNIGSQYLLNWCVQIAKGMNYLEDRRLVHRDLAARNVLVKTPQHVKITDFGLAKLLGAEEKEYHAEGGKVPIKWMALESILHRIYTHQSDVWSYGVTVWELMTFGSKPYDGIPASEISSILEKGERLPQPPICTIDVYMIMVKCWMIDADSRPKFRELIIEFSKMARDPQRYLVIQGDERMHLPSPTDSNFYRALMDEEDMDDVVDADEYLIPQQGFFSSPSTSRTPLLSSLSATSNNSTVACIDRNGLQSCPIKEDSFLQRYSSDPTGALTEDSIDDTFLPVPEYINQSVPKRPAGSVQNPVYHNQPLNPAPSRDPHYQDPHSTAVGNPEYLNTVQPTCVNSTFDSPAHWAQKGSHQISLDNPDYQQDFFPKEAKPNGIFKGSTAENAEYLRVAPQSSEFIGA
kinase (Homo sapiens, UniProt P00533), sequence (P00533 25-1210 limits assumed): as the sequence (P00533 25-1210) above
EGFR (L858R), sequence (P00533 25-1210 L858R): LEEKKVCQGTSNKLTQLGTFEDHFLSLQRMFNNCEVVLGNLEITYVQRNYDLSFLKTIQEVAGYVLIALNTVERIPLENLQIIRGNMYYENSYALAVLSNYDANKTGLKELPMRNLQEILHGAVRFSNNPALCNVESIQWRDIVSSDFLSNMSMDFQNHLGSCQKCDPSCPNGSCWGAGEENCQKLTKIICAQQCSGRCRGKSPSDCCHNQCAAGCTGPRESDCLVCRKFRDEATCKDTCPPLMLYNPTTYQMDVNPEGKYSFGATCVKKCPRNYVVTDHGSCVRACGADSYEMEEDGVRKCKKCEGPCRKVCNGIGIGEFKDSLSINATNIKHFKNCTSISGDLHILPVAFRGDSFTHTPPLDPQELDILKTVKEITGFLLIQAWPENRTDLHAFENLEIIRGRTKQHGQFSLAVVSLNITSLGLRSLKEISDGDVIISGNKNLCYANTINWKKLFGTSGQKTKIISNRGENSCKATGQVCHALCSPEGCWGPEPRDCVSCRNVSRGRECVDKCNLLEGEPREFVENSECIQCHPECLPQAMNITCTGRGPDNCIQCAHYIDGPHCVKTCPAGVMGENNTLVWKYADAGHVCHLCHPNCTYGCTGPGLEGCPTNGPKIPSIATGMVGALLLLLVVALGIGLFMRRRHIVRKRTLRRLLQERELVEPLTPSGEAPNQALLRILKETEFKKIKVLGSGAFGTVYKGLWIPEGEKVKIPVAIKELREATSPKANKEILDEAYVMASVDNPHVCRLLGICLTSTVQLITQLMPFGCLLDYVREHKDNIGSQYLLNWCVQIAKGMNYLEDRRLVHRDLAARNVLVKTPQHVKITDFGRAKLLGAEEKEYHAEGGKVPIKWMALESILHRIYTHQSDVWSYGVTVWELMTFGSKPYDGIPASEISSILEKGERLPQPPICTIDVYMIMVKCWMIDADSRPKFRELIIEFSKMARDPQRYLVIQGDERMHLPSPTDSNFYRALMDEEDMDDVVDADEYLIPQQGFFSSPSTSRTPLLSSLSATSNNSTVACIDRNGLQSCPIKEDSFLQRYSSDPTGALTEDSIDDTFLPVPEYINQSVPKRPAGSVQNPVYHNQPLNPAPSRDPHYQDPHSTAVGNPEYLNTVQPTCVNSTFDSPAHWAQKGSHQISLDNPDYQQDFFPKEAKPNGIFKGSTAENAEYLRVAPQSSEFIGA
kinase (Homo sapiens, UniProt P00533, L858R), sequence (P00533 25-1210 L858R limits assumed): as the sequence (P00533 25-1210 L858R) above
EGFR S752-I759del, sequence (P00533 other isoform, or with tags, fused parts or gaps del 1-668/del 752-759/del 1012-1210 limits assumed): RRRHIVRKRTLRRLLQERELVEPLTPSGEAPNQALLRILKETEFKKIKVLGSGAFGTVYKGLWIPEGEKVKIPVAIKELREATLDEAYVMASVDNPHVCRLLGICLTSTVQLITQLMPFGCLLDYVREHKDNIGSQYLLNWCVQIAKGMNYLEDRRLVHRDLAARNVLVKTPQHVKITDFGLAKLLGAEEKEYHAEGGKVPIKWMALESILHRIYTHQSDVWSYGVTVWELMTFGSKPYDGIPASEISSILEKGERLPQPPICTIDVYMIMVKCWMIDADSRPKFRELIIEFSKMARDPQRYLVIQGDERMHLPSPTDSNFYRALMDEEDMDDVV

| SMILES | IC50 (kinase [1]) [nM] | IC50 (EGFR WT) [nM] | IC50 (EGFR (L858R)) [nM] | Kd [2] [nM] | Kd [3] [nM] | Kd [4] [nM] | Kd [5] [nM] | Kd [6] [nM] | Kd [7] [nM] | Kd (EGFR E746-A750del) [nM] | Kd (EGFR S752-I759del) [nM] | IC50 (HER2) [nM] | IC50 (kinase [8]) [nM] | IC50 (kinase [9]) [nM] | IC50 (kinase [10]) [nM] | IC50 (kinase [11]) [nM] |
| --- | --- | --- | --- | --- | --- | --- | --- | --- | --- | --- | --- | --- | --- | --- | --- | --- |
| N#Cc1cnc2ccc(NC(=O)CC3CCSS3)cc2c1Nc1ccc(OCc2cccc(F)c2)c(Cl)c1 (stereo not shown) [Example 62, N-(4-((3-Chloro-4-((3-fluorobenzyl)oxy)phenyl)amino)-3-cyanoquinolin-6-yl)-2-(1,2-dithiolan-3-yl)acetamide] | 1 to 99 | 100 to 999 | 1 to 99 |  |  |  |  |  |  |  |  |  |  |  |  |  |
| CCOc1cc2ncc(C#N)c(Nc3ccc(OCc4cccc(F)c4)c(Cl)c3)c2cc1NC(=O)CC1CCSS1 (stereo not shown) [Example 40] |  | 100 to 999 | 1 to 99 | 1 to 99 | 1 to 99 | 1 to 99 | 1 to 99 | 1 to 99 | 1 to 99 | 1 to 99 | 1 to 99 | 100 to 999 |  |  |  |  |
| N#Cc1cnc2cc(OC[C@@H](O)CO)c(NC(=O)C3CSSC3)cc2c1Nc1ccc(OCc2cccc(F)c2)c(Cl)c1 [Example 98, (S)—N-(4-((3-Chloro-4-((3-fluorobenzyl)oxy)phenyl)amino)-3-cyano-7-(2,3dihydroxypropoxy)quinolin-6-yl)-1,2-dithiolane-4-carboxamide] | 1 to 99 | 100 to 999 | 1 to 99 |  |  |  |  |  |  |  |  |  | 1 to 99 | 100 to 999 | 1 to 99 | 100 to 999 |
| N#Cc1cnc2cc(OC[C@H](O)CO)c(NC(=O)C3CSSC3)cc2c1Nc1ccc(OCc2cccc(F)c2)c(Cl)c1 [Example 95, (R)—N-(4-((3-Chloro-4-((3-fluorobenzyl)oxy)phenyl)amino)-3-cyano-7-(2,3-dihydroxypropoxy)quinolin-6-yl)-1,2-dithiolane-4-carboxamide] |  | 100 to 999 | 1 to 99 |  |  |  |  |  |  |  |  |  | 100 to 999 |  | 1 to 99 | 1000 to 10000 |
| N#Cc1cnc2cc(OC[C@@H](O)CO)c(NC(=O)CC3CSSC3)cc2c1Nc1ccc(OCc2cccc(F)c2)c(Cl)c1 [Example 92, (S)—N-(4-((3-Chloro-4-((3-fluorobenzyl)oxy)phenyl)amino)-3-cyano-7-(2,3-dihydroxypropoxy)quinolin-6-yl)-2-(1,2-dithiolan-4-yl)acetamide] | 1 to 99 | 100 to 999 | 1 to 99 |  |  |  |  |  |  | 1 to 99 | 1 to 99 | 100 to 999 | 100 to 999 | 100 to 999 | 1 to 99 | 1000 to 10000 |
| N#Cc1cnc2ccc(NC(=O)C3CSSC3)cc2c1Nc1ccc(OCc2cccc(F)c2)c(Cl)c1 [Example 61, N-(4-((3-Chloro-4-((3-fluorobenzyl)oxy)phenyl)amino)-3-cyanoquinolin-6-yl)-1,2-dithiolane-4-carboxamide] | 100 to 999 |  |  |  |  |  |  |  |  |  |  |  |  |  |  |  |
| N#Cc1cnc2cc(OC[C@H](O)CO)c(NC(=O)CC3CSSC3)cc2c1Nc1ccc(OCc2cccc(F)c2)c(Cl)c1 [Example 90, (R)—N-(4-((3-Chloro-4-((3-fluorobenzyl)oxy)phenyl)amino)-3-cyano-7-(2,3-dihydroxypropoxy)quinolin-6-yl)-2-(1,2-dithiolan-4-yl)acetamide] | 1 to 99 | 100 to 999 | 1 to 99 |  |  |  |  |  |  |  |  |  | 100 to 999 |  | 1 to 99 | 1000 to 10000 |
